Experiments:
[1] = tested on: ACC; test: Phosphorylation of ACC in L6 cells (Western blot, phospho-ACC ser79); format: cell-based, rat; conditions: 1.25-5 μmol/L, 3 h, dose-dependent
Procedure: (§1) Mangiferin-berberine salt that is obtained by the method of embodiments as above dissolves in DMSO. Before use it is diluted by culture medium or HBS. The ultimate concentration of DMSO is less than 0.2%.
(§2) The rat L6 cell line was obtained from the ATCC. HG-DMEM was from GIBCO™. Fetal bovine serum (FBS) was purchased from Hyclone. Anti-AMPK, anti-ACC, antiphospho-AMPK (Thr172), antiphospho-ACC (ser79) polyclonal antibodies were from Cell Signal Technology.
(§3) L6 cells were grown in HG-DMEM containing 10% (v/v) FBS, 100 units/ml penicillin and 100 U/ml streptomycin in a humidified atmosphere of 5% CO2 at 37° C. When the cells covered 60%, the medium was switched to HG-DMEM with 2% FBS and the culture medium was replaced every two days until that the cells covered about 90%.
(§4) Cells in 6-well plates were starved in serum-free HG-DMEM, and then samples were added into serum-free HG-DMEM; the concentration of DMSO is 0.2%. The samples incubated for 3 h in the cells. […]
(§5) Samples were electrophoresed on 10% SDS-polyacrylamide gels, and transferred to PVDF membranes under 100V and 1-2 h in the transmembrane instrument. Protein in the gel was transferred to […] under the state of half dry, and the band was determined by Ponceau S (Ponceau S). […]

[2] = Solubility in different pH water (hydrochloric acid adjusted); format: physicochemical
Procedure: (§6) As the pH of human gastric juice is 1-3, the above properties of mangiferin-berberine salt can be well dissolved in gastric juice, which is very conducive to the absorption of drugs in the body. Any ratio mangiferin-berberine composition can not increase the solubility in the acidic water.
Take pure water; add hydrochloric acid to adjust pH to 1 and 3 and 5 separately. Take the water 50 ml of different pH; weigh up accurately 50 mg mangiferin-berberine salt powder, put into the 50 ml water as above, shake and observe dissolved phenomena.
Take the water 50 ml of different pH 1 and 3; weigh up accurately 100 mg mangiferin-berberine salt powder, put into the 50 ml water as above, shake and observed dissolved phenomena.
Take the water 50 ml of pH 1; weigh up accurately 200 mg mangiferin-berberine salt powder, put into the 50 ml water as above, shake and observed dissolved situation.
Take the water 50 ml of pH 1 for three copies; weigh up accurately 50 mg mangiferin and berberine composition powder (the molecular ratio of mangiferin and berberine is 1:1, 1:3, 1:5), put into the 50 ml water as above separately, shake and observed dissolved phenomena. The trace of the mangiferin and berberine compositions that include all ratios as above can dissolve.

[3] = tested on: AMPK; test: Activation of AMPK in L6 cells (Western blot, phospho-AMPK Thr172); format: cell-based, rat; conditions: 1.25-5 μmol/L, 3 h, dose-dependent
Procedure: as §1, §2, §3, §4, §5

[4] = tested on: TNF-α; test: Serum TNF-α in rheumatoid arthritis rat (ELISA); format: in vivo, rats; conditions: versus model group
Procedure: (§7) Wistar rats, female, 100±20 g. Acid-soluble Bovine-derived collagen type II (Collagen II) and Freund's incomplete adjuvant was purchased from Sigma. TNF-α kit was purchased from Nanjing Jiancheng Biological Engineering Institute.
(§8) The Acid-soluble Bovine-derived collagen type II (C II) with Freund's incomplete adjuvant, was made up to 2.5 mg/ml emulsion, Every rat was injected emulsion containing […] by intradermal in the right rear paw in order to inflame.
(§9) Normal rats group (control group, n=10); model rats group (n=10); mangiferin-berberine salt low dose group (10 mg/kg, n=10, BML); mangiferin-berberine salt middle dose group (20 mg/kg, n=10, BMM); mangiferin-berberine salt high dose group (40 mg/kg, n=10, BMH); Dexamethasone Sodium Phosphate group (0.1 mg/kg, Dexa, n=10).
(§10) Two weeks after primary immunization, test samples or vehicle control was given orally for 4 weeks. Normal and model rats group were given the saline of an equal volume.
4.2 Cytokines: The blood specimens were taken from femoral artery at the end of the experiment, and serum was extracted, then frozen. TNF-α was measured according to the instructions of ELISA kit.

[5] = Accelerated stability test, content by HPLC; format: physicochemical
Procedure: Put several parts of mangiferin-berberine salt into glass bottles, seal, set inside drug stability chamber, set accelerated testing conditions to: 40° C.±2° C./75% RH+5% RH. At 0 and 1 and 2 months, sample, determine the content of mangiferin-berberine salt by HPLC.

[6] = tested on: dementia rats; test: Effect on Aβ1-40-induced dementia rats (Morris water maze); format: in vivo; conditions: versus model group
Procedure: SD male rats, SPF, 250˜300 g, free drinking water and eating food, before the experiment in a lab environment adapted for 2-3d, the temperature of the laboratory was controlled at 25° C., relative humidity was 40%-80%.
Sham surgery rats group (control group, n=10) were injected the saline of an equal volume in the hippocampus; model rats group (n=10) were treated by Aβ1-40; mangiferin-berberine salt low dose group (20 mg/kg, n=10, BML); mangiferin-berberine salt middle dose group (40 mg/kg, n=10, BMM); mangiferin-berberine salt high dose group (80 mg/kg, n=10, BMH).
Test samples or vehicle control was given orally for 4 weeks, one week before modeled. Maze training period, administrated in 0.5 h before training.
Injected […] into the hippocampus of rats to establish animal model of AD. As follows: […]
Spatial learning and memory tests: Morris water maze method. Platform located in the northeast quadrant of the middle of the maze; the water level is 1.5 cm above the platform; the temperature of water was maintained at 19° C.˜20° C.; rats were continuously training for 5d, twice a day; we set the maximum swimming time of 70s, recorded the time that rats found the platform (latent period, EL) by stopwatch.

[7] = tested on: rheumatoid arthritis rat; test: Effect on rheumatoid arthritis rat (collagen type II model), foot swelling; format: in vivo, rats; conditions: versus model group
Procedure: as §7, §8, §9, §10
Foot swelling: Measurement the volume of right hind foot by capillary enlarge measure method, calculated swelling growth percentage [(value after administration−value before administration)/value before administration]×100%.

[8] = Precipitation of the acidic solutions at room temperature within 24 hours; format: physicochemical; conditions: for precipitate on standing: room temperature, 12 hours
Procedure: as §6
Mark all above the mangiferin-berberine salt solutions, places them at room temperature, observe the phenomenon within 24 hours.

[9] = tested on: KK-ay mice; test: Effect on KK-ay mice (glucose, lipid, insulin, UAER, liver enzymes); format: in vivo; conditions: 40 mg/kg orally for 30 days, versus model group
Procedure: Mangiferin-berberine salt was obtained by the method of examples as above. Mangiferin-berberine salt was suspended with 3‰ sodium carboxymethyl cellulose before use. Rosiglitazone hydrochloride was purchased from Zhejiang wanma pharmaceutical Co., Ltd.
KK-ay mice, 16 weeks age, male.
KK-ay mice group (n=10); mangiferin-berberine salt low dose group (20 mg/kg, n=10, BML); mangiferin-berberine salt middle dose group (40 mg/kg, n=10, BMM); mangiferin-berberine salt high dose group (80 mg/kg, n=10), BMH metformin group[500 mg/kg, n=10]. Test samples or vehicle control was given orally for 30 days. KK-ay mice group were given vehicle.
The blood specimens were taken at the end of the experiment. Plasma glucose (GLU, mmol/L), lipid [triglycerides (TG, mmol/L), total cholesterol (TC, mmol/L), low density lipoprotein (LDL, mmol/L), high density lipoprotein (HDL, mmol/L)], liver enzyme [ALT(U/L) and AST(U/L)] were determined using GF-D800 semi-auto chemist which was purchased from Shandong Gaomi Caihong Analytical Instrument Co., Ltd.
Insulin: Radioimmunoassays (RIA), γ counter counts. insulin RIA Kit was purchased from Shandong Weifang City three-dimensional (3V) Biological Company. Urinary albumin. Collected urine for 24 h by metabolic cages, and recorded the output of urine. Urine was centrifuged, supernatant was taken, it was saved at −80° C. Free urinary were collected weekly Monday 13:00 by tail raise reflection. Assay urinary albumin by competitive ELISA, calculate the urinary albumin excretion rate (urinary albumin excretion rate=urinary albumin concentration (mg/L)×urine volume (ml)/total collection time (minutes)=mg/min, UAER), the units of figure is mg/24 h.
The results have been calculated as mean±SD ( x±SD) and comparisons of the data have been done by t-test.

[10] = Solubility of mangiferin-berberine salt in water; format: physicochemical
Procedure: Its chemical structure is as follows:
5 mg mangiferin-berberine salt powder which is weighed up accurately is put into 50 ml distilled water under 25° C.±2° C., the solution is shaken strongly 30 seconds every 5 minutes. There are solute particles in 30 minutes. The water solubility of mangiferin-berberine salt is less than 0.1 mg/ml. Mangiferin-berberine salt is hardly solubility substance in water.

[11] = tested on: human hepatoma cell line Bel-7402; test: Chemosensitizing effect on tumor cells (MTT cytotoxicity); format: cell-based; conditions: 72 h
Procedure: Mangiferin-berberine salt (BM) was obtained by the method of embodiments as above. Cisplatin (DDP), adriamycin (ADM) and taxol were purchased from the market. Samples were dissolved in DMSO.
DMSO group, BM group (20 μmol/L), DDP group (1 μmol/L), ADM group (1 μmol/L), TAXOL group (1 μmol/L), BM (20 μmol/L)+DDP (1 μmol/L) group, BM (20 μmol/L)+ADM (1 μmol/L) group, BM (20 μmol/L)+TAXOL (1 μmol/L) group.
In accordance with 10^3-10^4/well, cultured human hepatoma cell line Bel-7402 200 μl per well were inoculated into 96-well cell culture plate, the samples were added after 24 hours. For those groups which are composed of the two samples, after mangiferin-berberine salt and cells were cultured together for 3 h, DDP or ADM or TAXOL were added, cultured for 72 h. Finally cell toxicity was determined by tetrazolium salt reduction (MTT). Experiments were repeated twice.

[12] = high dose (40 mg/kg) orally for 4 weeks
[13] = middle dose (20 mg/kg) orally for 4 weeks

mangiferin-berberine salt
phosphorylation of ACC [1]: increases significantly
dissolved phenomena ([2]; 50 mg in 50 ml water, pH 1): dissolved rapidly in the water of pH 1 in a few seconds
dissolved phenomena ([2]; 50 mg in 50 ml water, pH 3): dissolved in the water of pH 3 in five minutes
dissolved phenomena ([2]; 50 mg in 50 ml water, pH 5): did not dissolve completely
dissolved phenomena ([2]; 100 mg in 50 ml water, pH 1): dissolved in the water of pH 1 in a minute
dissolved phenomena ([2]; 100 mg in 50 ml water, pH 3): did not dissolve completely
dissolved situation ([2]; 200 mg in 50 ml water, pH 1): can dissolve in the water of pH 1, but there is precipitation soon in the solution
solubility in strong acid solution ([2]; strong acid solution, the smaller the pH, the better it dissolves): dissolves in strong acid solution
phosphorylation of AMPK [3]: increases significantly
secretion of cytokine TNF-α [4, 12]: significantly inhibited
secretion of cytokine TNF-α [4, 13]: significantly inhibited
content of mangiferin-berberine salt by HPLC ([5]; 40° C.±2° C./75% RH+5% RH, sealed glass bottles, 0, 1 and 2 months): do not significantly change
shelf time at room temperature ([5]; suggested from the accelerated test): > 1 year
EL (latent period) of fifth day, Morris water maze ([6]; high dose (80 mg/kg) orally for 4 weeks): significantly reduced
EL (latent period) of fifth day, Morris water maze ([6]; middle dose (40 mg/kg) orally for 4 weeks): significantly reduced
paw swelling [7, 12]: significantly inhibited
paw swelling [7, 13]: significantly inhibited
precipitate on standing ([8]; pH 1, 4 mg/ml): more precipitate
precipitation in acid solution ([8]; pH 1-3, concentration below 2 mg/ml, within 12 hours): precipitation is only traces
precipitation in acid solution ([8]; pH 1-3, concentration greater than 4 mg/ml): precipitates soon after it dissolves
precipitate on standing ([8]; pH 1 and 3, 1 mg/ml and 2 mg/ml): trace precipitate
INS [9]: significantly improves
ISI [9]: significantly improves
UAER [9]: significantly improves
blood glucose [9]: significantly improves
lipid [9]: significantly improves
liver enzymes [9]: significantly improves
water solubility ([10]; 5 mg in 50 ml distilled water, 25° C.±2° C., 30 minutes): less than 0.1 mg/ml
solubility in boiling water ([10]; boiling water): slightly soluble in boiling water
solubility in water ([10]; water): Almost insoluble in water
cytotoxicity combined with ADM versus ADM alone ([11]; Bel-7402, BM 20 μmol/L 3 h before ADM 1 μmol/L): significantly higher
cytotoxicity combined with DDP versus DDP alone ([11]; Bel-7402, BM 20 μmol/L 3 h before DDP 1 μmol/L): significantly higher
cytotoxicity combined with TAXOL versus TAXOL alone ([11]; Bel-7402, BM 20 μmol/L 3 h before TAXOL 1 μmol/L): significantly higher
